In brackets after ≈: the same amount, converted by molar mass. Activity calls are given as the source filed them. The calls are words filed in the database; no cut-off is given here. Square brackets hold non-standard residues; d marks the D form. Peptide text beside a SMILES is read from it. * marks the point of attachment. Stearoyl = CCCCCCCCCCCCCCCCCC(=O)*; Myristoyl = CCCCCCCCCCCCCC(=O)*; Orn = NCCC[CH](N)C(=O)O
Tests used:
Klebsiella pneumoniae [1] = test: Antibacterial activity against clinical isolates of kanamycin-resistant Klebsiella pneumoniae GMCH/R-Kan006 after overnight incubation by microdilution broth assay; format: functional
[2] = test system: Staphylococcus epidermidis; test: Antibacterial activity against clinical isolates of Staphylococcus epidermidis GMCH/B0057 after overnight incubation by microdilution broth assay; format: functional
Haemophilus influenzae [3] = test: Antibacterial activity against clinical isolates of ciprofloxacin-resistant Haemophilus influenzae PGI/DML01744 after overnight incubation by microdilution broth assay; format: functional
Streptococcus pneumoniae [4] = test: Antibacterial activity against clinical isolates of Streptococcus pneumoniae PGI/DML02468 after overnight incubation by microdilution broth assay; format: functional
Klebsiella pneumoniae [5] = test: Antibacterial activity against clinical isolates of Klebsiella pneumoniae GMCH/B0127 after overnight incubation by microdilution broth assay; format: functional
Haemophilus influenzae [6] = test: Antibacterial activity against clinical isolates of Haemophilus influenzae PGI/DML01751 after overnight incubation by microdilution broth assay; format: functional
[7] = Cytotoxicity against human HaCaT cells assessed as cell viability at 500 ug/ml after 18 hrs by MTT assay; format: cell-based; details: read-out: Activity
Acinetobacter baumannii [8] = test: Antibacterial activity against clinical isolates of imipenem-resistant Acinetobacter baumannii GMCH/R-Imi003 after overnight incubation by microdilution broth assay; format: functional
[9] = Cytotoxicity against human HaCaT cells assessed as cell viability at 100 ug/ml after 18 hrs by MTT assay; format: cell-based; details: read-out: Activity
Pseudomonas aeruginosa [10] = test: Antibacterial activity against clinical isolates of Pseudomonas aeruginosa PGI/DML02084 after overnight incubation by microdilution broth assay; format: functional
Staphylococcus aureus [11] = test: Antibacterial activity against clinical isolates of methicillin-resistant Staphylococcus aureus PGI/DML03149 after overnight incubation by microdilution broth assay; format: functional
Staphylococcus aureus [12] = test: Antibacterial activity against clinical isolates of Staphylococcus aureus PGI/DML03054 after overnight incubation by microdilution broth assay; format: functional
Acinetobacter baumannii [13] = test: Antibacterial activity against clinical isolates of Acinetobacter baumannii GMCH/B0083 after overnight incubation by microdilution broth assay; format: functional
Enterococcus faecalis [14] = test: Antibacterial activity against clinical isolates of Enterococcus faecalis GMCH/B0091 after overnight incubation by microdilution broth assay; format: functional
Escherichia coli [15] = test: Antibacterial activity against clinical isolates of imipenem-resistant Escherichia coli PGI/DML02292 after overnight incubation by microdilution broth assay; format: functional
Pseudomonas aeruginosa [16] = test: Antibacterial activity against clinical isolates of streptomycin-resistant Pseudomonas aeruginosa PGI/DML01991 after overnight incubation by microdilution broth assay; format: functional
Streptococcus pneumoniae [17] = test: Antibacterial activity against clinical isolates of erythromycin-resistant Streptococcus pneumoniae PGI/DML02213 after overnight incubation by microdilution broth assay; format: functional
Enterococcus faecium [18] = test: Antibacterial activity against clinical isolates of Enterococcus faecium GMCH/B0102 after overnight incubation by microdilution broth assay; format: functional
Enterococcus faecium [19] = test: Antibacterial activity against clinical isolates of penicillin-resistant Enterococcus faecium GMCH/R-Pen003 after overnight incubation by microdilution broth assay; format: functional
Enterococcus faecalis [20] = test: Antibacterial activity against clinical isolates of gentamicin-resistant Enterococcus faecalis GMCH/R-Gen011 after overnight incubation by microdilution broth assay; format: functional
Escherichia coli [21] = test: Antibacterial activity against clinical isolates of Escherichia coli PGI/DML02250 after overnight incubation by microdilution broth assay; format: functional
[22] = test system: Staphylococcus epidermidis; test: Antibacterial activity against clinical isolates of ampicillin-resistant Staphylococcus epidermidis GMCH/R-Amp008 after overnight incubation by microdilution broth assay; format: functional
Escherichia coli [23] = test: Binding affinity to Escherichia coli PGI/DML02292 DNA at 12 ug/ml after 1 hr by agarose gel electrophoresis
[24] = Membrane permeabilization activity assessed as release of calcein from liposomes at 1:50 lipopeptide:lipid molar ratio after 5 mins by fluorescence assay
[25] = Membrane permeabilization activity assessed as release of calcein from liposomes at 1:10 lipopeptide:lipid molar ratio after 5 mins by fluorescence assay
Plasma = test: Drug degradation in human plasma at 1 ug/ml after 24 hrs by RP-HPLC analysis; format: ADME, cell-free
[26] = Membrane permeabilization activity assessed as release of calcein from liposomes after 5 mins by fluorescence assay

SMILES | MIC (Klebsiella pneumoniae [1]) | MIC [2] | MIC (Haemophilus influenzae [3]) | MIC (Streptococcus pneumoniae [4]) | MIC (Klebsiella pneumoniae [5]) | MIC (Haemophilus influenzae [6]) | viability at 18 h, 500 ug/ml [7] | MIC (Acinetobacter baumannii [8]) | viability at 18 h, 100 ug/ml [9] | MIC (Pseudomonas aeruginosa [10]) | MIC (Staphylococcus aureus [11]) | MIC (Staphylococcus aureus [12]) | MIC (Acinetobacter baumannii [13]) | MIC (Enterococcus faecalis [14]) | MIC (Escherichia coli [15]) | MIC (Pseudomonas aeruginosa [16]) | MIC (Streptococcus pneumoniae [17]) | MIC (Enterococcus faecium [18]) | MIC (Enterococcus faecium [19]) | MIC (Enterococcus faecalis [20]) | also measured
CCCCCCCCCCCCCC(=O)NC(CCCN)C(=O)NC(CCCN)C(=O)NC(CCCN)C(=O)NC(CCCN)C(N)=O (stereo not drawn) (Myristoyl-[Orn][Orn][Orn][Orn]-NH2; configuration not given here) | 6.25 µg/mL (≈ 9.14 µM) | 3.5 µg/mL (≈ 5.12 µM) | 10 µg/mL (≈ 14.6 µM) | 5.5 µg/mL (≈ 8.04 µM) | 4.5 µg/mL (≈ 6.58 µM) | 12.5 µg/mL (≈ 18.3 µM) | > 80% | 5.5 µg/mL (≈ 8.04 µM) | > 80% | 3.1 µg/mL (≈ 4.53 µM) | 5 µg/mL (≈ 7.31 µM) | 4.5 µg/mL (≈ 6.58 µM) | 5 µg/mL (≈ 7.31 µM) | 2 µg/mL (≈ 2.92 µM) | 10 µg/mL (≈ 14.6 µM) | 3 µg/mL (≈ 4.39 µM) | 7.5 µg/mL (≈ 11 µM) | 4 µg/mL (≈ 5.85 µM) | 5.5 µg/mL (≈ 8.04 µM) | 3.5 µg/mL (≈ 5.12 µM) | MIC (Escherichia coli [21]): 2.5 µg/mL (≈ 3.66 µM); MIC [22]: 4.25 µg/mL (≈ 6.21 µM)
CCCCCCCCCCCCCCCCCC(=O)NC(CCCN)C(=O)NC(CCCN)C(=O)NC(CCCN)C(=O)NC(CCCN)C(N)=O (stereo not drawn) (Stearoyl-[Orn][Orn][Orn][Orn]-NH2; configuration not given here) | 8 µg/mL (≈ 10.8 µM) | 5.5 µg/mL (≈ 7.43 µM) | 12.5 µg/mL (≈ 16.9 µM) | 4 µg/mL (≈ 5.4 µM) | 3.5 µg/mL (≈ 4.73 µM) | 8 µg/mL (≈ 10.8 µM) | 67% | 12.5 µg/mL (≈ 16.9 µM) | 82% | 4.5 µg/mL (≈ 6.08 µM) | 7.5 µg/mL (≈ 10.1 µM) | 5 µg/mL (≈ 6.76 µM) | 10 µg/mL (≈ 13.5 µM) | 3.1 µg/mL (≈ 4.19 µM) | 7.5 µg/mL (≈ 10.1 µM) | 2 µg/mL (≈ 2.7 µM) | 12.5 µg/mL (≈ 16.9 µM) | 7.5 µg/mL (≈ 10.1 µM) | 12.5 µg/mL (≈ 16.9 µM) | 10 µg/mL (≈ 13.5 µM) | Activity (Escherichia coli [23]): inactive; Activity [24]: 43%; Activity [25]: 79%; Stability (Plasma): Stable; MIC (Escherichia coli [21]): 7.5 µg/mL (≈ 10.1 µM); Activity [26]: Dose-dependent effect; MIC [22]: 5 µg/mL (≈ 6.76 µM)
CCCCCCCCCCCCCCCCCC(=O)NC(CCCN)C(=O)NC(CCCN)C(=O)NC(CCCN)C(=O)NC(CCCN)C(=O)NC(CCCN)C(N)=O (stereo not drawn) (Stearoyl-[Orn][Orn][Orn][Orn][Orn]-NH2; configuration not given here) | 12.5 µg/mL (≈ 14.6 µM) | 4.5 µg/mL (≈ 5.27 µM) | 15 µg/mL (≈ 17.6 µM) | 2.5 µg/mL (≈ 2.93 µM) | 4 µg/mL (≈ 4.68 µM) | 10 µg/mL (≈ 11.7 µM) | > 80% | 7.5 µg/mL (≈ 8.78 µM) | > 80% | 2.5 µg/mL (≈ 2.93 µM) | 10.5 µg/mL (≈ 12.3 µM) | 6.2 µg/mL (≈ 7.26 µM) | 10 µg/mL (≈ 11.7 µM) | 4.5 µg/mL (≈ 5.27 µM) | 7.5 µg/mL (≈ 8.78 µM) | 5 µg/mL (≈ 5.85 µM) | 10 µg/mL (≈ 11.7 µM) | 6.2 µg/mL (≈ 7.26 µM) | 12.5 µg/mL (≈ 14.6 µM) | 15 µg/mL (≈ 17.6 µM) | MIC (Escherichia coli [21]): 5 µg/mL (≈ 5.85 µM); MIC [22]: 10.5 µg/mL (≈ 12.3 µM)
CCCCCCCCCCCCCCCC(=O)NC(CCCN)C(=O)NC(CCCN)C(=O)NC(CCCN)C(N)=O (stereo not drawn) | 3.1 µg/mL (≈ 5.18 µM) | 4 µg/mL (≈ 6.69 µM) | 5.5 µg/mL (≈ 9.2 µM) | 3.1 µg/mL (≈ 5.18 µM) | 3.5 µg/mL (≈ 5.85 µM) | 5 µg/mL (≈ 8.36 µM) | > 80% | 5.5 µg/mL (≈ 9.2 µM) | > 80% | 2.5 µg/mL (≈ 4.18 µM) | 4.5 µg/mL (≈ 7.53 µM) | 5 µg/mL (≈ 8.36 µM) | 4 µg/mL (≈ 6.69 µM) | 3.1 µg/mL (≈ 5.18 µM) | 6.25 µg/mL (≈ 10.5 µM) | 3.1 µg/mL (≈ 5.18 µM) | 3.5 µg/mL (≈ 5.85 µM) | 3 µg/mL (≈ 5.02 µM) | 5 µg/mL (≈ 8.36 µM) | 5 µg/mL (≈ 8.36 µM) | MIC (Escherichia coli [21]): 5.5 µg/mL (≈ 9.2 µM); MIC [22]: 5.5 µg/mL (≈ 9.2 µM)

From ChEMBL document CHEMBL3352151, “In vitro and in vivo antibacterial evaluation and mechanistic study of ornithine based small cationic lipopeptides against antibiotic resistant clinical isolates” (Eur J Med Chem, 2014)
